This experiment deals with T1, hGlyT-1b (Homo sapiens, UniProt P48067).
T1 sequence (P48067 1-652 isoform P48067-3): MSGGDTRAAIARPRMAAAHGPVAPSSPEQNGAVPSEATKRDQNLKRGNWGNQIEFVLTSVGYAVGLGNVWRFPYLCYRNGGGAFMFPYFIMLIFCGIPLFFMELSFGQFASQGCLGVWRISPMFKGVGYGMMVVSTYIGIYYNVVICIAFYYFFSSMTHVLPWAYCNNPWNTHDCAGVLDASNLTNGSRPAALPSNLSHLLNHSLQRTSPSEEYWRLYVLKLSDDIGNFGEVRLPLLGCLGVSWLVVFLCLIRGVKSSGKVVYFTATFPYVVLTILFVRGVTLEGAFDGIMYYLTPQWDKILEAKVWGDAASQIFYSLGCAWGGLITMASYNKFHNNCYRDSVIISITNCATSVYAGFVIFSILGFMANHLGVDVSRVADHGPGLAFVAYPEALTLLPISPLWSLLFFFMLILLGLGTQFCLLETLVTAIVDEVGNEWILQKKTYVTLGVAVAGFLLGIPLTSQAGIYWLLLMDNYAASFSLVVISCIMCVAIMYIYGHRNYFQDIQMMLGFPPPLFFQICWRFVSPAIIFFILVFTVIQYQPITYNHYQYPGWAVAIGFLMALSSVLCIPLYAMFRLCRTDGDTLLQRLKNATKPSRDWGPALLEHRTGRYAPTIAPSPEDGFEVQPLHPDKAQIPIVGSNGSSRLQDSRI
Briefly: Glycine uptake inhibition assay (hGlyT-1b), [3H]-glycine uptake in transfected CHO cells.

Where two headings read alike, the source gives them in different places.

In the case of `O=S(=O)(c1ccc(Cl)c(Cl)c1)N(c1ccccc1)C1CCN([C@@H]2CCCC[C@@H]2c2ccccc2)CC1` (racemic) [Example 1, (+/−)-3,4-Dichloro-N-phenyl-N-[cis-1-(2-phenyl-cyclohexyl)-piperidin-4-yl]-benzenesulfonamide], inhibition was half-maximal at 0.048 µM (IC50).

In the case of `COc1ccc(S(=O)(=O)N(c2cccc(OC)c2)C2CCN([C@@H]3CCCC[C@@H]3c3ccccc3)CC2)cc1` (racemic) [Example 3, (+/−)-4-Methoxy-N-(3-methoxy-phenyl)-N-[cis-1-(2-phenyl-cyclohexyl)-piperidin-4-yl]-benzenesulfonamide], the IC50 was found to be 0.094 µM.

`COc1ccc(S(=O)(=O)N(c2ccccc2)C2CCN([C@@H]3CCCC[C@@H]3c3ccccc3)CC2)cc1` (racemic) [Example 11, (+/−)-4-Methoxy-N-phenyl-N-[cis-1-(2-phenyl-cyclohexyl)-piperidin-4-yl]-benzenesulfonamide] had an IC50 of 0.056 µM.

`Cc1ccc(S(=O)(=O)N(c2ccc(F)cc2)C2CCN([C@@H]3CCCC[C@@H]3c3ccccc3)CC2)cc1` (racemic) [Example 67, (+/−)-N-(4-Fluoro-phenyl)-4-methyl-N-[cis-1-(2-phenyl-cyclohexyl)-piperidin-4-yl]-benzenesulfonamide] showed an IC50 of 0.099 µM.

The compound `COc1ccc(S(=O)(=O)N(c2ccc(F)cc2)C2CCN([C@@H]3CCCC[C@@H]3c3ccccc3)CC2)cc1` (racemic) [Example 69, (+/−)-N-(4-Fluoro-phenyl)-4-methoxy-N-[cis-1-(2-phenyl-cyclohexyl)-piperidin-4-yl]-benzenesulfonamide] yielded an IC50 of 0.029 µM.

With `COc1ccc(S(=O)(=O)N(c2cccc(C(F)(F)F)c2)C2CCN([C@@H]3CCCC[C@@H]3c3ccccc3)CC2)cc1` (racemic) [Example 75, (+/−)-4-Methoxy-N-[cis-1-(2-phenyl-cyclohexyl)-piperidin-4-yl]-N-(3-trifluoromethyl-phenyl)-benzenesulfonamide], the IC50 came to 0.068 µM.

The compound `COc1ccc(S(=O)(=O)N(c2ccccc2)C2CCN([C@@H]3CCCC[C@@]3(O)c3ccccc3)CC2)cc1` (racemic) [Example 99, (+/−)-N-[cis-1-(2-Hydroxy-2-phenyl-cyclohexyl)-piperidin-4-yl]-4-methoxy-N-phenyl-benzenesulfonamide] registered an IC50 of 0.028 µM.

Regarding `COc1ccc(S(=O)(=O)N(c2ccc(Cl)cc2)C2CCN([C@@H]3CCCC[C@@]3(O)c3ccccc3)CC2)cc1` (racemic) [Example 102, (+/−)-N-(4-Chloro-phenyl)-N-[cis-1-(2-Hydroxy-2-phenyl-cyclohexyl)-piperidin-4-yl]-4-methoxy-benzenesulfonamide], the IC50 is 0.092 µM.

For the compound `COc1ccc(S(=O)(=O)N(c2ccc(Cl)cc2)C2CCN([C@@H]3CCCC[C@@]3(O)c3cccnc3)CC2)cc1` (racemic) [Example 105, (+/−)-N-(4-Chloro-phenyl)-N-[cis-1-(2-hydroxy-2-pyridin-3-yl-cyclohexyl)-piperidin-4-yl]-4-methoxy-benzenesulfonamide], inhibition was half-maximal at 0.084 µM (IC50).

`COc1ccc(S(=O)(=O)N(c2ccccc2)C2CCN([C@@H]3CCCC[C@@]3(O)c3ccc(Cl)cc3)CC2)cc1` (racemic) [Example 107, (+/−)-N-{cis-1-[2-(4-Chloro-phenyl)-2-hydroxy-cyclohexyl]-piperidin-4-yl}-4-methoxy-N-phenyl-benzenesulfonamide] displayed an IC50 of 0.083 µM.

`COc1ccc(S(=O)(=O)N(c2ccccc2)C2CCN([C@@H]3CCCC[C@@]3(O)c3ccc(F)cc3)CC2)cc1` (racemic) [Example 108, (+/−)-N-{cis-1-[2-(4-Fluoro-phenyl)-2-hydroxy-cyclohexyl]-piperidin-4-yl}-4-methoxy-N-phenyl-benzenesulfonamide] had an IC50 of 0.04 µM.

As to `COc1ccc(S(=O)(=O)N(c2ccccc2)C2CCN([C@@H]3CCCC[C@@]3(O)c3ccncc3)CC2)cc1` (racemic) [Example 109, (+/−)-N-[cis-1-(2-Hydroxy-2-pyridin-4-yl-cyclohexyl)-piperidin-4-yl]-4-methoxy-N-phenyl-benzenesulfonamide], the IC50 stood at 0.073 µM.

As to `COc1ccc(S(=O)(=O)N(c2ccccc2)C2CCN([C@@H]3CCCC[C@@]3(O)c3cccnc3)CC2)cc1` (racemic) [Example 110, (+/−)-N-[cis-1-(2-Hydroxy-2-pyridin-3-yl-cyclohexyl)-piperidin-4-yl]-4-methoxy-N-phenyl-benzenesulfonamide], it took 0.076 µM to reach half-maximal inhibition (IC50).

In turn, `COc1ccc(S(=O)(=O)N(c2ccccc2)C2CCN([C@@H]3CCCC[C@@]3(O)c3ccccc3C)CC2)cc1` (racemic) [Example 111, (+/−)-N-[cis-1-(2-Hydroxy-2-o-tolyl-cyclohexyl)-piperidin-4-yl]-4-methoxy-N-phenyl-benzenesulfonamide] came in with an IC50 of 0.068 µM.

The compound `COc1ccc(S(=O)(=O)N(c2ccc(F)cc2)C2CCN([C@@H]3CCCC[C@@]3(O)c3ccccc3)CC2)cc1` (racemic) [Example 112, (+/−)-N-(4-Fluoro-phenyl)-N-[cis-1-(2-Hydroxy-2-phenyl-cyclohexyl)-piperidin-4-yl]-4-methoxy-benzenesulfonamide] displayed an IC50 of 0.061 µM.

Compound `COc1ccc(S(=O)(=O)N(c2ccc(F)cc2)C2CCN([C@@H]3CCCC[C@@]3(O)c3ccc(F)cc3)CC2)cc1` (racemic) [Example 114, (+/−)-N-(4-Fluoro-phenyl)-N-{cis-1-[2-(4-fluoro-phenyl)-2-hydroxy-cyclohexyl]-piperidin-4-yl}-4-methoxy-benzenesulfonamide] gave an IC50 of 0.066 µM.

Compound `COc1ccc(S(=O)(=O)N(c2ccc(F)cc2)C2CCN([C@@H]3CCCC[C@@]3(O)c3ccncc3)CC2)cc1` (racemic) [Example 115, (+/−)-N-(4-Fluoro-phenyl)-N-[cis-1-(2-hydroxy-2-pyridin-4-yl-cyclohexyl)-piperidin-4-yl]-4-methoxy-benzenesulfonamide] gave an IC50 of 0.071 µM.

For the compound `COc1ccc(S(=O)(=O)N(c2cccc(C(F)(F)F)c2)C2CCN([C@@H]3CCCC[C@@]3(O)c3ccncc3)CC2)cc1` (racemic) [Example 120, (+/−)-N-[cis-1-(2-Hydroxy-2-pyridin-4-yl-cyclohexyl)-piperidin-4-yl]-4-methoxy-N-(3-trifluoromethyl-phenyl)-benzenesulfonamide], the IC50 came to 0.091 µM.

In turn, `COc1ccc(S(=O)(=O)N(c2cccc(C(F)(F)F)c2)C2CCN([C@@H]3CCCC[C@@]3(O)c3cccnc3)CC2)cc1` (racemic) [Example 121, (+/−)-N-[cis-1-(2-Hydroxy-2-pyridin-3-yl-cyclohexyl)-piperidin-4-yl]-4-methoxy-N-(3-trifluoromethyl-phenyl)-benzenesulfonamide] showed an IC50 of 0.071 µM.

With `COc1ccc(S(=O)(=O)N(c2cccc(OC)c2)C2CCN([C@@H]3CCCC[C@@]3(O)c3ccccc3)CC2)cc1` (racemic) [Example 123, (+/−)-N-[cis-1-(2-Hydroxy-2-phenyl-cyclohexyl)-piperidin-4-yl]-4-methoxy-N-(3-methoxy-phenyl)-benzenesulfonamide], the IC50 amounted to 0.095 µM.

With `COc1ccc(S(=O)(=O)N(c2cccc(OC)c2)C2CCN([C@@H]3CCCC[C@@]3(O)c3ccc(F)cc3)CC2)cc1` (racemic) [Example 125, (+/−)-N-{cis-1-[2-(4-Fluoro-phenyl)-2-hydroxy-cyclohexyl]-piperidin-4-yl}-4-methoxy-N-(3-methoxy-phenyl)-benzenesulfonamide], the IC50 was 0.096 µM.

In turn, `COc1ccc(S(=O)(=O)N(c2ccccc2)C2CCN([C@@H]3CCCC[C@]3(O)c3ccccc3)CC2)cc1` (racemic) [Example 159, (+/−)-N-[trans-1-(2-Hydroxy-2-phenyl-cyclohexyl)-piperidin-4-yl]-4-methoxy-N-phenyl-benzenesulfonamide] yielded an IC50 of 0.068 µM.

In turn, `COc1ccc(S(=O)(=O)N(c2ccc(F)cc2)C2CCN([C@@H]3COCC[C@@]3(O)c3ccccc3)CC2)cc1` (racemic) [Example 163, (+/−)-N-(4-Fluoro-phenyl)-N-[cis-1-(4-hydroxy-4-phenyl-tetrahydro-pyran-3-yl)-piperidin-4-yl]-4-methoxy-benzenesulfonamide] returned an IC50 of 0.085 µM.

Regarding `COc1ccc(S(=O)(=O)N(c2ccccc2)C2CCN([C@@H]3CCCC[C@@]3(O)c3ccccc3)CC2)cc1` [Example 100, (+)-N-[cis-1-(2-Hydroxy-2-phenyl-cyclohexyl)-piperidin-4-yl]-4-methoxy-N-phenyl-benzenesulfonamide], inhibition was half-maximal at 0.015 µM (IC50).

“(+)-4-Methoxy-N-phenyl-N-[cis-1-(2-phenyl-cyclohexyl)-piperidin-4-yl]-benzenesulfonamide [Example 96]”: the IC50 (read-out: IC50 (μM) at GlyT-1) came to 0.049 µM.

The record behind these values is patent US7176316B2, “Amino-piperidine derivatives” (Hoffmann-La Roche Inc., priority 2003, dated 2007).
